The source of these data is patent EP3949965A1 (Consejo Superior de Investigaciones Cientificas, priority 2020, dated 2022).

The nature of data set [1]: in vitro. The settings on record: human.
A short description of data set [2]: in vitro. The settings on record: African green monkey.
Another data set deals with Vero-E6 cells. The settings on record: African green monkey.

`O=c1[nH]c2ccccc2n1CCCN1CCC(n2c(=O)[nH]c3cc(Cl)ccc32)CC1` [Domperidone, domperidone] returned a CC50 at 72 h in the data set “in vitro [1]” of 4 µM. Also, the CC50 in the data set “in vitro [2]” stood at 25 µM. Besides, the “HIGHEST NONTOXIC CONCENTRATION (MTT)” value in the data set on Vero-E6 cells was 12.5.
